Assays:
Type in all cases: toxicity, cell-based
[1] = test system: HEK-293T; assay: Incucyte cell viability with HEK293T; conditions: human, 10 µM, compound concentration 10 uM
[2] = test system: Fibroblast; assay: Incucyte cell viability with human fibroblast; conditions: 10 µM, compound concentration 10 uM
[3] = test system: U2OS; assay: Incucyte cell viability with U2OS; conditions: human, 10 µM, compound concentration 10 uM
[4] = 0 h, replicate number 1, timepoint 0 hours
[5] = 0 h, replicate number 2, timepoint 0 hours
[6] = 6 h, replicate number 1, timepoint 6 hours
[7] = 6 h, replicate number 2, timepoint 6 hours
[8] = 12 h, replicate number 1, timepoint 12 hours
[9] = 12 h, replicate number 2, timepoint 12 hours
[10] = 18 h, replicate number 1, timepoint 18 hours
[11] = 18 h, replicate number 2, timepoint 18 hours
[12] = 24 h, replicate number 1, timepoint 24 hours
[13] = 24 h, replicate number 2, timepoint 24 hours
Further: filed as whole numbers so only -1 and 0 and 1 occur.

| SMILES | Growth Rate [1, 4] | Growth Rate [1, 5] | Growth Rate [1, 6] | Growth Rate [1, 8] | Growth Rate [1, 10] | Growth Rate [1, 12] | Growth Rate [2, 4] | Growth Rate [2, 9] | Growth Rate [2, 10] | Growth Rate [2, 11] | Growth Rate [2, 12] | Growth Rate [3, 4] | Growth Rate [3, 6] | Growth Rate [3, 7] | Growth Rate [3, 8] | Growth Rate [3, 10] | Growth Rate [3, 12] | Growth Rate [1, 13] | Growth Rate [2, 6] | Growth Rate [2, 8] | further results |
| --- | --- | --- | --- | --- | --- | --- | --- | --- | --- | --- | --- | --- | --- | --- | --- | --- | --- | --- | --- | --- | --- |
| CCCCN1CCC(COC(=O)c2cc(Cl)c(N)c3c2OCCO3)CC1.Cl | 1 | 0 | 0 | 0 | 0 | 0 | 0 | 0 | 1 | 0 | 1 | 1 | 1 | 0 | 1 | 1 | 1 | – | – | – | Growth Rate [1, 7]: 1; Growth Rate [1, 9]: 1; Growth Rate [1, 11]: 1; Growth Rate [2, 7]: 0; Growth Rate [2, 13]: 0; Growth Rate [3, 9]: 0; Growth Rate [3, 11]: 0; Growth Rate [3, 13]: 0 |
| Clc1cccc(-c2nnnn2Cc2cccnc2)c1Cl | 1 | 0 | 1 | 1 | 1 | 1 | 0 | – | 0 | – | 0 | – | 1 | 0 | 0 | 0 | 1 | 0 | 1 | 0 | Growth Rate [1, 7]: 0; Growth Rate [2, 7]: 0; Growth Rate [3, 9]: 1; Growth Rate [3, 11]: 1 |
| CNCCN1CCC(OCc2ccccc2)CC1 | 1 | 0 | – | – | 1 | 1 | – | 1 | 0 | – | 1 | – | 1 | – | 1 | 1 | 1 | – | 0 | 0 | Growth Rate [1, 7]: 1; Growth Rate [1, 9]: 1; Growth Rate [2, 5]: 0; Growth Rate [2, 7]: 1; Growth Rate [3, 5]: 0 |
| O=C(O)[C@@H]1[C@@H](Cn2nnc3ccccc3c2=O)CC[C@H]1C(=O)c1ccc(OCCC2CCOCC2)cc1 [BAY-694] | 0 | 1 | 0 | – | 1 | 1 | 0 | 0 | 1 | 0 | 0 | 0 | 0 | – | 1 | 0 | 1 | – | 0 | 1 | Growth Rate [1, 7]: 1; Growth Rate [1, 9]: 0; Growth Rate [2, 5]: 1; Growth Rate [2, 13]: 1; Growth Rate [3, 13]: 0 |
| Nc1nc(NCc2ccccc2)nc(-c2ccccc2CO)n1 [Ogerin] | 1 | 0 | 0 | 1 | 1 | 0 | 1 | – | 0 | – | 0 | – | – | 1 | 1 | 1 | 1 | 1 | 0 | 0 | Growth Rate [1, 7]: 1; Growth Rate [3, 5]: 0 |
| O=c1nc(-c2ccccn2)sc2ccccc12 [BTZO-1] | 0 | 1 | 1 | 1 | 1 | 1 | 1 | 1 | 0 | 1 | 0 | 0 | 1 | – | 0 | 1 | 1 | – | 0 | 0 | Growth Rate [2, 5]: 0; Growth Rate [2, 7]: 1; Growth Rate [2, 13]: 1; Growth Rate [3, 9]: 1; Growth Rate [3, 11]: 0; Growth Rate [3, 13]: 0 |
| CN(C)[C@@H]1CCN(c2cc(-c3ccccc3)nc3ccnn23)C1 [(R)-ZINC-3573] | 0 | – | 1 | 1 | 1 | 1 | 0 | – | 1 | 0 | 1 | – | – | 0 | 1 | 0 | 1 | 0 | 0 | 1 | Growth Rate [3, 9]: 0; Growth Rate [3, 11]: 1 |
| C[C@H](c1ccc(F)cc1)N(Cc1ccc(Cl)c(C(=O)O)c1)C(=O)c1cnc2ccccc2c1 [PF-05257137] | 1 | 0 | 0 | 0 | 0 | 1 | 0 | 1 | – | 1 | 1 | 0 | – | – | 1 | 1 | 1 | 0 | – | – | Growth Rate [2, 7]: 0 |
| CN(c1ccnc(CNc2nc(Nc3ccc4c(c3)CC(=O)N4)ncc2C(F)(F)F)n1)S(C)(=O)=O [PF-00911705] | – | – | 0 | 0 | 0 | 0 | 0 | 0 | 0 | – | 1 | – | 0 | – | 0 | 0 | 0 | – | – | 1 | Growth Rate [2, 7]: 0; Growth Rate [2, 13]: 0; Growth Rate [3, 5]: 0 |
| C[C@H](Cc1cc2c(c(C(N)=O)c1)N(CCCO)CC2)NCCOc1ccccc1OCC(F)(F)F [SILODOSIN] | 0 | – | 0 | 0 | 0 | 0 | 0 | – | 0 | – | 1 | 0 | – | 0 | 1 | 1 | 1 | – | 0 | 0 | Growth Rate [2, 13]: 0; Growth Rate [3, 9]: 0; Growth Rate [3, 13]: 0 |
| CN([C@@H]1CCc2c(CC(=O)O)c3cc(S(C)(=O)=O)ccc3n2C1)S(=O)(=O)c1ccc(F)cc1 [CRTH2-negative-control] | 1 | 0 | 0 | 0 | 0 | 0 | 0 | 0 | 1 | 0 | 1 | 0 | 0 | – | 1 | 0 | 0 | 1 | – | 1 | Growth Rate [1, 7]: 1; Growth Rate [1, 9]: 1; Growth Rate [1, 11]: 1; Growth Rate [2, 7]: 0; Growth Rate [2, 13]: 0; Growth Rate [3, 9]: 0; Growth Rate [3, 11]: 1 |
| CC(C)(C)NCC(O)COc1cccc2[nH]c(=O)[nH]c12.Cl (configuration not stated) | 1 | 0 | 0 | 0 | 1 | 1 | 0 | 0 | 1 | – | 1 | 0 | – | 0 | 1 | 1 | 1 | 0 | – | 1 | Growth Rate [2, 7]: 0 |
| CN([C@@H]1CCc2c(CC(=O)O)c3ccccc3n2C1)S(=O)(=O)c1ccc(F)cc1 [MK-7246] | 0 | – | 0 | 0 | 0 | 0 | 0 | 1 | 0 | 1 | 0 | 0 | – | 0 | 1 | 1 | 0 | 1 | 0 | 0 | Growth Rate [1, 7]: 1; Growth Rate [1, 11]: 1; Growth Rate [3, 13]: 1 |
| CC1=C(C#N)C(c2ccc3[nH]nc(C)c3c2)C(C#N)=C(C)N1 [BAY-474] | 0 | – | – | – | – | – | 1 | – | 1 | – | 1 | 0 | 0 | – | 0 | 0 | 0 | 1 | 0 | 1 | Growth Rate [3, 11]: 1 |
| Cn1cnc2c(F)c(Nc3ccc(Br)cc3Cl)c(C(=O)NOCCO)cc21 [SELUMETINIB] | 0 | 1 | – | – | – | 1 | 0 | – | – | – | 1 | 1 | 0 | – | 0 | 0 | 0 | – | – | – | Growth Rate [1, 9]: 1 |
| N#Cc1ccc(NC(=O)Nc2ccccc2Br)c2nn[nH]c12 | 0 | – | – | 1 | 1 | 1 | 0 | – | 1 | – | 1 | 0 | – | 1 | 1 | 1 | 1 | – | 1 | 1 | Growth Rate [1, 7]: 1; Growth Rate [2, 5]: 1; Growth Rate [3, 5]: 1 |
| CCCc1nc2c(C)cc(-c3nc4ccccc4n3C)cc2n1Cc1ccc(-c2ccccc2C(=O)O)cc1 | 0 | – | 0 | 0 | 0 | 0 | 0 | 1 | 1 | – | 0 | 0 | – | 1 | 1 | 1 | 1 | – | 1 | 0 | Growth Rate [3, 13]: 0 |
| CC[C@@H]1[C@H](F)C(=O)N[C@@H]1COc1nccc2cc(C(N)=O)c(OC)cc12 [ZIMLOVISERTIB] | 0 | – | – | – | – | – | – | – | 0 | – | 0 | 0 | 0 | 1 | 0 | 0 | 0 | 1 | 0 | 0 | Growth Rate [1, 9]: 1; Growth Rate [2, 5]: 0 |
| Cc1c(C(=O)NC2CCCCC2)sc2nc3ccc(N)cc3n12.Cl | 0 | – | 0 | 0 | 0 | 0 | 0 | – | – | 1 | 1 | 0 | 1 | 0 | 1 | 1 | 1 | – | 0 | 1 | – |
| Cl.Cl.c1ccc([C@@H]2C[C@H]2NC2CCNCC2)cc1 | – | 1 | 0 | 1 | – | 1 | 0 | 1 | – | 1 | 1 | 0 | – | 1 | 1 | 1 | 1 | – | – | – | Growth Rate [3, 5]: 1 |

— ChEMBL document CHEMBL4689842, “EUbOPEN Chemogenomics Library wave 1” (2021)
